# Laboratory results published in patent US20050175535A1 (CV Therapeutics, Inc., priority 2000, published 2005).
# Where two headings read alike, the source gives them in different places.
# Legend:
# A2A adenosine receptors [1] = molecular target: A2A adenosine receptors (Sus scrofa, UniProt K9IW67); experiment: Competitive radioligand binding, [3H]ZM241385, pig striatum membranes
# Procedure: Membranes were also obtained from porcine striatial cells as follows. […] The homogenate was filtered through cotton gauze and centrifuged at 48,000g for 15 minutes at 4° C. […] The final pellet was frozen at −80° C. until used for receptor binding assays.
# [2] = tested on: rat isolated perfused heart; experiment: Reversal time of coronary vasodilation in rat isolated perfused hearts; details: bolus, rat isolated perfused heart;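 also: each agonist bolused at its minimal concentration giving equal maximal coronary conductance rise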
# Procedure: FIG. 10. Reversal of effect of agonist stimulation on CC. […] CC was measured at 8, 16 and 24 minutes after administration (FIG. 10A). […] R and N are the correlation coefficient and number of agonists, respectively.
# The relationship between the affinity of agonists for the A2A receptor and the rate of reversal of agonist-mediated responses (coronary vasodilation in heart and cAMP accumulation in PC12 cells) upon termination of drug administration were determined. […] The duration of the coronary vasodilation in isolated rat hearts caused by adenosine, the CVT compounds, and other agonists measured as the time to 50% and 90% (t0.5 and t0.9, respectively) reversal of the increases in coronary conductance after termination of drug administration are summarized in Table 4.
# [3] = molecular target: T1, A2A adenosine receptors (PC12 cells) (Rattus norvegicus, UniProt P30543); experiment: cAMP accumulation in PC12 cells
# Procedure: Effects of adenosine receptor agonists on cAMP content in intact PC12 cells. […] Cyclic AMP levels were determined as described under “Methods”. Values represent mean±SEM of results of triplicate samples from three experiments. […] Values represent mean±SEM of triplicate determinants from one representative experiment.
# Briefly, PC12 cells were rinsed three times with Hanks' balanced saline solution (HBSS), detached using a cell lifter, and pelleted by centrifugation at 500 g for 5 minutes. Aliquots of the cell suspension (0.1 to 0.2 mg protein) were placed in microfuge tubes with 250 μL of HBSS containing rolipram (50 μmol/L) to inhibit phosphodiesterases that degrade cAMP_and warmed to 37° C. Appropriate drugs were added to the cell suspensions, and incubations were allowed to continue for 10 minutes. Tubes were placed in a boiling water bath for 5 minutes to terminate the incubation. The samples were then cooled to room temperature, diluted by the addition of 1 mL of 10 mmol/L Tris-HCl buffer at pH 7.4, and then centrifuged for 2 minutes at 13000 g.
# The samples were then incubated at 4° C. for 16 hours. At the end of the incubation, 70 μL of a 50% (wt/vol) hydroxyapatite suspension was added to each tube. The suspensions were gently agitated and then incubated for 10 minutes at 4° C. Antibody-bound radioactivity adsorbed to hydroxyapatite was collected onto glass fiber filters by vacuum filtration using a Brandel cell harvester. Radioactivity retained by the filter was counted in a gamma counter. […] The amount of cAMP present in samples was calculated based on a standard curve using known amounts of cAMP.
# [4] = tested on: rat isolated perfused heart; experiment: Coronary conductance / coronary perfusion pressure in isolated perfused rat hearts; details: Rattus norvegicus
# Procedure: Briefly, rats of either sex weighing 230-260 grams were anesthetized by intraperitoneal injection of a mixture of ketamine (100 mg/ml) and xylazine (20 mg/ml). The chest of each rat was opened and the heart removed, and rinsed in ice-cold modified Krebs-Henseleit (K-H) solution containing NaCl 117.9, KCl 4.5, CaCl2 2.5, MgSO4 1.18, KH2PO4 1.18, pyruvate 2.0 mmo/L. The aorta was cannulated and the heart was perfused at a flow rate of 10 ml/min with modified K-H solution. The K-H solution (pH 7.4) was gassed continuously with 95% O2 and 5% CO2 and warmed to 35±0.5° C. The heart was electrically paced at a fixed cycle length of 240 ms (250 beats/min) using a bipolar electrode placed in the left atrium. The electrical stimuli were generated by a Grass stimulator (Model S48, W. Warwick, R.I.) and delivered through a Stimuli Isolation Unit (Model SIU5, Astro-Med, Inc., NY) as square-wave pulses of 3-msec in duration and with an amplitude of at least twice the threshold intensity.
# The identity of the adenosine receptor subtype (A1 or A2A) mediating the coronary vasodilation was determined.
# Coronary perfusion pressure (CPP) was measured using a pressure transducer that was connected to the aortic cannula via a T-connector positioned approximately 3 cm above the heart. CPP was monitored throughout an experiment and recorded either on a chart recorder (Gould Recorder 2200S, Valley View, Ohio) or a computerized recording system (PowerLab/4S, ADInstruments Pty Ltd, Australia). Only hearts with CPP ranging from 60 to 85 mmHg (in the absence of drugs) were used in the study. CC conductance (in ml/min/mmHg) was calculated as the ratio between coronary perfusion rate (10 ml/min) and CPP.
# A2A adenosine receptors [5] = molecular target: A2A adenosine receptors (Rattus norvegicus, UniProt P30543); experiment: Competitive radioligand binding, [3H]ZM241385, PC12 cell membranes; details: PC12 cells (A2A)
# [6] = Coronary blood flow and reversal time, intracoronary infusion in open-chest anesthetized pigs; assay type: in vivo
# Procedure: The magnitude of the effect of A2A adenosine receptor agonists on coronary dilation and the duration of the effect was determined in pigs weighing 22-27 kg. […] In addition, animals were used in accordance with the guidelines of the University of Kentucky Institutional Animal Care and Use Protocol.
# Anesthesia was maintained with additional sodium pentobarbital (1.5-2 mg/kg, i.v.) every 15-20 minutes. Animals were ventilated via a tracheotomy tube using a mixture of room air and 100% O2. Tidal volume, respiratory rate and fraction of O2 in inspired air were adjusted to maintain arterial blood gas (ABG) and pH values. […] Lactate Ringers solution was administered via an ear or femoral vein as an initial bolus of 300-400 ml followed by a continuous infusion at a rate of 5-7 ml/kg/hr. A catheter was inserted into the femoral artery to monitor arterial blood pressure.
# The heart was exposed through a median sternotomy and suspended in a pericardial cradle. Left ventricular pressure (LVP) was measured with a 5F high fidelity pressure sensitive tip transducer (Millar Instruments, Houston, Tex.) placed in the left ventricular cavity via an apical incision and secured with a purse string suture. A segment of the left anterior descending coronary artery (LAD), proximal to the origin of the first diagonal branch, was dissected free of surrounding tissue. A transit time perivascular flow probe (Transonic Systems Inc., Ithaca, N.Y.) was placed around this segment to measure CBF. Proximal to the flow probe, a 24-gauge modified angiocatheter was inserted for intracoronary infusions. […] The A2A adenosine receptors agonists were administered intracoronary.
# Relationship between affinity of various agonists for A2A adenosine receptor and the reversal time of their effect to increase coronary conductance was determined in pigs. Each experiment was preceded by a 30-minute stabilization period following the completion of all instrumentation of the animal. Baseline hemodynamic data were then recorded and an intracoronary infusion of an A2A Adenosine receptors agonist was initiated. Each infusion was maintained for 4-5 minutes to allow LAD CBF to reach a steady-state, after which the infusion was terminated. The times to recovery of CBF by 50% (t0.5) and 90% (t0.9) of the difference from peak effect to baseline CBF were recorded. Ten to 15 minutes after CBF returned to pre-drug values a second infusion with a different agonist was started. […] Hemodynamic measurements were made prior to and following the initiation of the phenylephrine infusion. The phenylephrine infusion rate was adjusted during and following the infusions of the adenosine receptor agonists to maintain arterial blood pressure within 5 mmHg of pre-infusion values. The effect of a maximum of three different agonists was determined in each experiment.
# [7] = molecular target: human A2A adenosine receptors (Homo sapiens, UniProt P29274); experiment: Competitive radioligand binding, [3H]ZM241385, HEK-hA2AAdoR membranes; details: HEK-hA2AAdoR
# Procedure: Each point represents the mean±SEM of triplicates pooled from at least three experiments.
# ZM241385 was purchased from Tocris Cookson Ltd (Langford, Bristol, UK).
# Competitive radiolabeling binding assays were performed to determine the binding affinities of the compounds of the invention for the adenosine receptor subtypes, A1, A2A, A2B and A3. Briefly, membrane suspensions, obtained from cells expressing either adenosine receptor subtypes A1, A2A, A2B or A3were incubated for 2 hours at room temperature in 50 mmol/L Tris-HCl buffer (pH 7.4) containing ADA (1U/mL). […] At the end of the incubation, free radioligand was separated from membrane-bound radioligand by filtration through Whatman GF/C glass fiber filters using a Brandel tissue harvester (Gaithersburg, Md.). Triplicate determinations were performed for each concentration of unlabelled compound.
# [8] = molecular target: T2, human A1 adenosine receptors (Homo sapiens, UniProt P30542); experiment: Competitive radioligand binding, [3H]CPX, CHO-hA1AdoR membranes; details: [3H]CPX
# T2 construct: expressed in transfected cells
# T2 sequence (P30542 1-326): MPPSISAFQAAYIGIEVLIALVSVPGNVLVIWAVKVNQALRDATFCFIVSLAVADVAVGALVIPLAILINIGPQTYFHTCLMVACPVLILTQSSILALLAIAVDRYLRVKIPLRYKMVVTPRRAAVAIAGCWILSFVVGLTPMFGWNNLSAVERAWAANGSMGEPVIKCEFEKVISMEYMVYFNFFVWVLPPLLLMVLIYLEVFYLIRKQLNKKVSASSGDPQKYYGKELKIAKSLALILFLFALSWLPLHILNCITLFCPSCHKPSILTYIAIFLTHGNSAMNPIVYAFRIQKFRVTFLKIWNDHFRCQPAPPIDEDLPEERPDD
# Procedure: The cell suspensions were homogenized and centrifuged at 48,000g for 15 minutes. The pellets were washed three times by re-suspension in ice-cold Tris-HCl buffer and centrifugation. The final pellet was re-suspended in Tris-HCl, aliquoted and frozen at −80° C. until used for receptor binding assays.
# [9] = molecular target: T1, A2A adenosine receptors (PC12 cells); experiment: Rate of decline of agonist-stimulated cAMP in PC12 cells after A2A antagonist SCH58261; details: agonist 1 μM, after addition of SCH58261 (20 μM)
# [10] = [3H]ZM241385, Gpp(NH)p present, read-out: Ki, Pig Strialum (A2A)
# [11] = read-out: EC50, Coronary Conductance (Rat Isolated Heart)
# [12] = read-out: pEC50 ± SEM, Coronary Conductance (Rat Isolated Heart) (converted)
# [13] = read-out: pKi ± SEM, CHO-hA1AdoR (converted)
# A2A adenosine receptors (Sus scrofa, UniProt K9IW67), sequence (K9IW67 1-409): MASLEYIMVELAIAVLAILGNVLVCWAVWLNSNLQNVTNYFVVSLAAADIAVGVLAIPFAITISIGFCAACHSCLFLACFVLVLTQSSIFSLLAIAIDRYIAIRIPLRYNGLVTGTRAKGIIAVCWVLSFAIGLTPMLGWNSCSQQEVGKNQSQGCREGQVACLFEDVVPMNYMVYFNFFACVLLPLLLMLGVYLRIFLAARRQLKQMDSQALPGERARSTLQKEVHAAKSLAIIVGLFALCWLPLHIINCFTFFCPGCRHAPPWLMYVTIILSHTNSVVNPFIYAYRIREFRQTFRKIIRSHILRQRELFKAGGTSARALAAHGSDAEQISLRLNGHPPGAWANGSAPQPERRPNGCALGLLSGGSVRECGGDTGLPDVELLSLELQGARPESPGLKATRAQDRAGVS
# human A2A adenosine receptors, sequence (P29274 whole entry): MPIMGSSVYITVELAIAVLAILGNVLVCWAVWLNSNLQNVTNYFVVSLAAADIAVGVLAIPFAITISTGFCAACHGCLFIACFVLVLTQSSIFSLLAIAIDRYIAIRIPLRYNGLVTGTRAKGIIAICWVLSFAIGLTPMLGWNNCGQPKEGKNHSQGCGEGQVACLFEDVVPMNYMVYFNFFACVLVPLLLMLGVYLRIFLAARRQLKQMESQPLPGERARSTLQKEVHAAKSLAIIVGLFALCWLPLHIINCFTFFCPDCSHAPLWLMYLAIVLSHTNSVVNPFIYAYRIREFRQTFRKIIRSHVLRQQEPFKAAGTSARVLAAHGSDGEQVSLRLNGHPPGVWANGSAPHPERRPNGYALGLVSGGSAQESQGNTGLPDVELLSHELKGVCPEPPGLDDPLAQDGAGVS
# A2A adenosine receptors (Rattus norvegicus, UniProt P30543), sequence (P30543 whole entry, the tested form may be a part): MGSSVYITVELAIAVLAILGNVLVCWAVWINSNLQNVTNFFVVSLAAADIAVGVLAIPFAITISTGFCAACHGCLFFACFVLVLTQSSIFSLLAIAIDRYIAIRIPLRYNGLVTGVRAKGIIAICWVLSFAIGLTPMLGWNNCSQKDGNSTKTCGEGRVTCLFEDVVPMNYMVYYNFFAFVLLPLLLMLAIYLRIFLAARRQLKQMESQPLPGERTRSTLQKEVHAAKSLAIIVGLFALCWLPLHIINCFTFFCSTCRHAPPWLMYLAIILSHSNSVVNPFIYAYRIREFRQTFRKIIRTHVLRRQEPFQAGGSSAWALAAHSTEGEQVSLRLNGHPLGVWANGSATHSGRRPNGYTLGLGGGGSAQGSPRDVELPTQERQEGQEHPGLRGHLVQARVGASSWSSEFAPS
# T1 sequence (P30543 whole entry, the tested form may be a part): as above
Ki (A2A adenosine receptors [1]; [10]),"EC50 [4, 11]","EC50 [4, 12]","Ki ([8]; read-out: Ki, CHO-hA1AdoR)","Ki [8, 13]",Compound,"t0.5, time to 50% reversal of the increase in coronary conductance [2]","t0.9, time to 90% reversal of the increase in coronary conductance [2]",Ki (A2A adenosine receptors [5]; Ki),also measured
1590 nM,66.5 nM,66.1 nM,6350 nM,6030 nM,Nc1nc(-c2cnn(Cc3ccccc3)c2)nc2c1ncn2C1O[C@@H](CO)[C@H](O)[C@@H]1O (stereo partly drawn) [CVT-3032],4.1 ± 0.3 min,9.8 ± 1.4 min,5520 nM,"EC50 [3]: 613 nM; agonist behaviour in PC12 cells [3]: partial A2A agonists; Emax ([3]; PC-12, read-out: maximal response of cAMP accumulation, % of that induced by CGS21680): 65%; CBF (fold-increase) ([6]; 30 ug/kg/min intracoronary): 3.78 ± 0.70 fold; t0.5 reversal of increase in coronary blood flow ([6]; 30 ug/kg/min intracoronary): 2.3 ± 0.6 min; t0.9 reversal of increase in coronary blood flow ([6]; 30 ug/kg/min intracoronary): 9.6 ± 1.0 min; Ki ([7]; Ki): 13700 nM; Ki ([7]; pKi ± SEM): 13500 nM"
14.4 nM,0.68 nM,0.676 nM,866 nM,851 nM,Nc1nc(C#CCOc2ccccc2)nc2c1ncn2C1O[C@@H](CO)[C@H](O)[C@@H]1O (stereo partly drawn) [CVT-2995],17.5 ± 1.2 min,23.2 ± 2.1 min,,"Ki (A2A adenosine receptors [1]; [3H]ZM241385, Gpp(NH)p present, read-out: pKi ± SEM, Pig Strialum (A2A) (converted)): 13.8 nM; t0.5, rate of decline of cAMP accumulated [9]: 3.9 ± 0.6 min; EC50 ([3]; EC50, cAMP Accumulation (PC12 cells)): 6.6 nM; EC50 ([3]; pEC50 ± SEM, cAMP Accumulation (PC12 cells)): 1.51 nM; Ki (A2A adenosine receptors [5]; Ki, [3H]ZM241385): 53 nM; Ki ([7]; Ki, [3H]ZM241385): 305 nM; Ki ([7]; pKi ± SEM, [3H]ZM241385): 302 nM"

Compound,Ki (A2A adenosine receptors [1]; [10]),"EC50 [4, 11]","EC50 [4, 12]","Ki ([8]; read-out: Ki, CHO-hA1AdoR)","Ki [8, 13]","t0.5, time to 50% reversal of the increase in coronary conductance [2]","t0.9, time to 90% reversal of the increase in coronary conductance [2]",Ki (A2A adenosine receptors [5]; Ki),also measured
"Nc1nc(N/N=C/C2CCCCC2)nc2c1ncn2[C@@H]1O[C@H](CO)[C@@H](O)[C@H]1O [WRC0470, 2-cyclohexylmethylidenehydrazinoadenosine, reference compound]",,0.62 nM,0.646 nM,7280 nM,6920 nM,,,18 nM,Ki (A2A adenosine receptors [1]): 20.7 nM; Ki (A2A adenosine receptors [5]; pKi ± SEM): 17 nM; t0.5 reversal of increase in coronary blood flow ([6]; 1 ug/kg/min intracoronary): 9.5 ± 0.8 min; t0.9 reversal of increase in coronary blood flow ([6]; 1 ug/kg/min intracoronary): 22.5 ± 1.6 min
